From patent publication US4748185A, “4-hydroxycoumarin derivatives” (priority 1985, dated 1988) come the findings set out here.

Read-outs that look alike come from different tables or passages of the source.

The test system of one series is prothrombin time. Description: Anticoagulant activity by measurement of the prothrombin time (3-day ED50, intraperitoneal, modified one-step method of Quick). To be noted: Rattus norvegicus, S100, ip, 72 h, read-out: 3-day ED50. The series is classed as in vivo, Wistar-strain male rats. As to the method: Anticoagulant activity of the compounds of Examples 1 to 11 was determined by measurement of the prothrombin time, which is a measure of blood-clotting properties and is a reliable indicator of efficacy for an anticoagulant rodenticide. The procedure for measurement of prothrombin time is based on Quick et al, Am. J. Med. Sci., 190, 501 to 511, 1935.
Prothrombin times were determined according to the following specific procedures. Test compounds were dissolved in a mixture of polyethylene glycol 200 (i.e. polyethylene glycol of average molar mass 200) and triethanolamine (9:1 w/w) and serially diluted with the same solvent system to give concentrations of; 5.0, 2.5, 1.0, 0.9, 0.8, 0.7, 0.6, 0.5, 0.45, 0.40, 0.35, 0.30, 0.25, 0.2 and 0.1 milligrammes per milliliter (mgml^-1).
As these concentrations represent a known number of milligrammes per milliliter administration of any solution to the test animal at the rate of 1 milliliter per 1 kilogramme of bodyweight (eg. a 250 g rat is administered 0.25 ml) delivers a dose (in mg kg^-1) numerically equivalent to the concentration of that solution. In this instance the terms concentration and dose are synonymous.
Thus, appropriate doses were a range of at least three consecutive doses from the above series of concentrations which it was estimated would induce a range of prothrombin time elevations between 0 to 100% such that a dose-response curve could be constructed for that analogue.
The doses were injected into test animals (200 to 250 g Wistar-strain male rats) by the interperitoneal route. Three days after injection, blood was withdrawn by cardiac puncture whilst the animals were held under "Halothane" anaesthesia.
Three rats were used in each test of a particular compound and three prothrombin time determinations were carried out on each blood sample. Prothrombin times were determined using the modified one-step method of Quick. The percentage extension time of each prothrombin time was determined by assigning 0% extension time to an arbitrary prothrombin resting time of 12 seconds, and 100% extension time to a prothrombin time elevated to an arbitrary 212 seconds. Results were plotted on log-probability graph paper, the best-line fitted, and the prothrombin time ED50 read from the graph.

For a further series, the system named is test animal (rat). Description: Acute oral LD50. The format is in vivo. To be noted: polyethylene glycol 200/triethanolamine 9:1 w/w. As to the method:
For some compounds, LD50 data has also been generated, as follows.
Compounds were dissolved in a mixture of polyethylene glycol 200 and triethanolamine (9:1 w/w) and serially diluted with the same solvent system to given concentrations of: 10.0, 4.64, 2.15, 1.00, 0.464, 0.215, 0.10, milligrammes per milliliter (mgml^-1).
As these concentrations represent a known number of milligrammes per milliliter, administration of any solution to the test animal at the rate of 1 milliliter per 1 kilogramme of bodyweight delivers a dose (in mgkg^-1) numerically equivalent to the concentration of that solution.
Thus appropriate doses were a range of four consecutive oral doses from the series of concentration sufficient to cause low group mortality at the lowest dose, and high group mortality at the highest dose. Acute oral LD50 's were then determined by reference to the tables in Horns' paper "Simplified LD50 (or ED50) Calculations", Biometrics, 12, 311-322.

The mark [1] stands for this setting: prothrombin time ED50, single intraperitoneal injection, male Wistar rats, blood taken three days after injection, 0% = 12 s, 100% = 212 s.

`O=c1oc2ccccc2c(O)c1C1CC(c2ccc(-c3ccccc3)cc2)Cc2ccccc21` (stereo not drawn) [Difenacoum, reference compound]: the ED50 (as a rule, the dose that gives a 50% effect, or the effect in half of the subjects) with prothrombin time was determined as 0.56 mg/kg. Further, the LD50 (commonly the dose at which mortality reaches 50%) with test animal (rat) is 1.80 mg/kg. Regarding `O=c1oc2ccccc2c(O)c1C1CC(c2ccc(-c3ccc(OCc4ccc(C(F)(F)F)cc4)cc3)cc2)Cc2ccccc21` (stereo not drawn) [Example 1, 3-{3-[4'-(4-trifluoromethylbenzyloxy)biphenyl-4-yl]-1,2,3,4-tetrahydro-1-naphthyl}-4-hydroxycoumarin], in the series with prothrombin time (setting [1]), the ED50 amounted to 0.4 mg/kg. This molecule also showed an LD50 in the series with test animal (rat) of 0.32 to 0.4 mg/kg. `N#Cc1ccc(COc2ccc(-c3ccc(C4Cc5ccccc5C(c5c(O)c6ccccc6oc5=O)C4)cc3)cc2)cc1` (stereo not drawn) [Example 2, 3-{3-[4'-(4-cyanobenzyloxy)biphenyl-4-yl]-1,2,3,4-tetrahydro-1-naphthyl}-4-hydroxycoumarin]: the ED50 with prothrombin time (setting [1]) came to 1.6 mg/kg. `O=c1oc2ccccc2c(O)c1C1CC(c2ccc(-c3ccc(OCc4ccc(Br)cc4)cc3)cc2)Cc2ccccc21` (stereo not drawn) [Example 3, 3-{3-[4'-(4-bromobenzyloxy)biphenyl-4-yl]-1,2,3,4-tetrahydro-1-naphthyl}-4-hydroxycoumarin]: the ED50 in the series with prothrombin time (setting [1]) was found to be 0.74 mg/kg. This molecule also gave an LD50 with test animal (rat) of 0.4 to 1.0 mg/kg.

Consider `O=c1oc2ccccc2c(O)c1C1CC(c2ccc(-c3ccc(-c4ccccc4)cc3)cc2)Cc2ccccc21` (stereo not drawn) [Example 4, 3-[3-(4'-terphenyl-4-yl)-1,2,3,4-tetrahydro-1-naphthyl]-4-hydroxycoumarin], for which the ED50 in the series with prothrombin time (setting [1]) turned out to be 0.55 mg/kg. In the series with test animal (rat), this molecule came in with an LD50 of 1.0 mg/kg.

On to `O=c1oc2ccccc2c(O)c1C1CC(c2ccc(OCc3ccc(-c4ccccc4)cc3)cc2)Cc2ccccc21` (stereo not drawn) [Example 5, 3-{3-[4-(4-phenylbenzyloxy)phenyl]-1,2,3,4-tetrahydro-1-naphthyl}-4-hydroxycoumarin], for which the ED50 in the series with prothrombin time (setting [1]) is 0.4 mg/kg. In the series on test animal (rat), this molecule displayed an LD50 of 0.4 to 1.0 mg/kg. On to `O=c1oc2ccccc2c(O)c1C1CC(c2ccc(OCc3ccc(-c4ccc(Br)cc4)cc3)cc2)Cc2ccccc21` (stereo not drawn) [Example 6, 3-{3-[4-(4'-bromobiphenyl-4-ylmethoxy)phenyl]-1,2,3,4-tetrahydro-1-naphthyl}-4-hydroxycoumarin], for which the ED50 in the series with prothrombin time (setting [1]) was 0.72 mg/kg. The same measure, in the same setting: the figure for `O=c1oc2ccccc2c(O)c1C1CC(c2ccc(Oc3ccc(-c4ccc(Cl)cc4)cc3)cc2)Cc2ccccc21` (stereo not drawn) [Example 7, 3-{3-[4-(4'-chlorobiphenyl-4-yloxy)phenyl]-1,2,3,4-tetrahydro-1-naphthyl}-4-hydroxycoumarin] is 0.36 mg/kg; for `O=c1oc2ccccc2c(O)c1C1CC(c2ccc(Cc3ccc(-c4ccc(Br)cc4)cc3)cc2)Cc2ccccc21` (stereo not drawn) [Example 8, 3-{3-[4-(4'-bromobiphenyl-4-ylmethyl)phenyl]-1,2,3,4-tetrahydro-1-naphthyl}-4-hydroxycoumarin] it is 0.37 mg/kg. Still for that read-out and setting: the figure for `O=c1oc2ccccc2c(O)c1C1CC(c2ccc(OCc3ccc(-c4ccc(-c5ccccc5)cc4)cc3)cc2)Cc2ccccc21` (stereo not drawn) [Example 9, 3-{3-[4-(4-biphenyl-4-ylbenzyloxy)phenyl]-1,2,3,4-tetrahydro-1-naphthyl}-4-hydroxycoumarin] is 0.49 mg/kg; for `O=c1oc2ccccc2c(O)c1C1CC(c2ccc(Cc3ccc(-c4ccccc4)cc3)cc2)Cc2ccccc21` (stereo not drawn) [Example 10, 3-{3-[4-(biphenyl-4-ylmethyl)phenyl]-1,2,3,4-tetrahydro-1-naphthyl}-4-hydroxycoumarin] it is 0.52 mg/kg. As to `O=c1oc2ccccc2c(O)c1C1CC(c2ccc(Oc3ccc(-c4ccccc4)cc3)cc2)Cc2ccccc21` (stereo not drawn) [Example 11, 3-{3-[4-(biphenyl-4-yloxy)phenyl]-1,2,3,4-tetrahydro-1-naphthyl}-4-hydroxycoumarin], in the series on prothrombin time (setting [1]), the ED50 worked out at 0.55 mg/kg. Same read-out and setting: the figure for `CC(=O)CC(c1ccccc1)c1c(O)c2ccccc2oc1=O` (stereo not drawn) [Warfarin, 3-(α-acetonylbenzyl)-4-hydroxycoumarin, reference compound] is 5.2 mg/kg.
